Molecules are shown by their SMILES.

Data set [1] can be described thus: Solubility test in different solvent systems. Format: physicochemical. The protocol:
Different solvent systems were prepared to test the solubility of the compound as shown in formula (I). Table 1 Solubility test

The conditions of data set [2]: bulk compound; needs to be stored at or below -60°C; cited from earlier work.
Where [3] appears, read: Purified water + 1 M NaOH solution for pH adjustment, 4.9 ml, charging amount 500.4 mg.
Setting [4] is: Purified water, 250 mL, charging amount 20.01 mg.

As for `CC(C)(O/N=C(\C(=O)N[C@@H]1C(=O)N2C(C(=O)[O-])=C(C[N+]3(CCCN(CCCNC(=O)c4ccc(O)c(O)c4Cl)C(=O)c4ccc(O)c(O)c4Cl)CCCC3)CS[C@H]12)c1csc(N)n1)C(=O)O` [compound as shown in formula (I)], the “Dissolution Status” value is reported as “Incomplete dissolution” in data set [1] (Hydrochloric acid (pH 1.0), 200 mL, charging amount 19.99 mg); “Complete dissolution” in data set [1] (setting [3]); “Incomplete dissolution” in data set [1] (Purified water, 20 mL, charging amount 20.01 mg); “Complete dissolution” in data set [1] (setting [4]). The “Solution pH after complete dissolution” value was 5.08 in data set [1] (setting [3]) and 3.6 in data set [1] (setting [4]). Further, the solubility (commonly the dissolved amount per volume that the medium holds) is below 1 mg/mL in data set [1] (Purified water, 250 mL, solution pH 3.6) and at least 100 mg/mL in data set [1] (purified water adjusted with 1 M NaOH solution, aqueous buffer, Purified water + 1 M NaOH solution for pH adjustment, 4.9 ml, solution pH 5.08). The stability entry in data set [2] is reported as “extremely poor stability”.

Values taken from patent publication EP4721744A1, “PHARMACEUTICAL COMPOSITION COMPRISING CEPHALOSPORIN ANTIBACTERIAL COMPOUND” (Jiangsu Hengrui Pharmaceuticals Co., Ltd., priority 2023, dated 2024).
